Here are results for 1 molecule from patent US20230233533A1, “COMPOSITIONS, METHODS OF TREATING AND PREVENTING FUNGAL INFECTIONS, AND METHODS OF INHIBITING PRP8 INTEIN EXPRESSION” (Health Research, Inc., priority 2020, published 2023).

The test system of one assay is C. neoformans H99. The assay can be described thus: Checkerboard assay. Type of assay: cell-based, Cryptococcus neoformans. As to the method:
Compounds were initially dissolved in DMSO and diluted in RPMI-1640-MOPS media four times the targeted final concentration and 50 μl was added per well. The second compound was similarly diluted and 50 μl was added per well, to a final volume of 100 μl/well. C. neoformans […] inoculum (100 μl) prepared from freshly grown cultures and diluted to an absorbance of 0.1 at 530 nm in water and further diluted (1:500) in RPMI-1640-MOPS was added to each well. To determine the fungicidal concentration of a compound, the wells with no visible growth were serially diluted, plated on SDA, and incubated at 30° C. for 48-72 h for the recovery of colony-forming units. Additionally, the cell density of treated and untreated wells was also estimated by reading absorbance at 630 nm using an EL808 reader (Bio-Tek). Percentage of inhibition compared to that of the no-drug-control well was calculated. […] Fractional inhibitory concentration (FIC) index value is calculated as the […]. The FIC index value is then used to categorize the interaction of the two compounds tested. […] Doern, C., “When Does 2 plus 2 Equal 5?A Review of Antimicrobial Synergy Testing,” Journal of Clinical Microbiology 52(12):4124-4128 (2014), which is hereby incorporated by reference in its entirety.

The next assay concerns C. neoformans H99 strain. The assay can be described thus: Fungal susceptibility test, broth microdilution MIC. Type of assay: cell-based, Cryptococcus neoformans. Conditions: for MIC: Cryptococcus neoformans, H99STRAIN. In a few lines: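 Compound MICs were determined by broth microdilution using a compound concentration series.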
Another assay has as its system trypsin. The assay can be described thus: Trypsin protease inhibition (Abz FRET substrate). The assay is classed as biochemical. Conditions: compound at 400 μM. As for the experimental part:
Trypsin and papain protease inhibition—An Abz FRET substrate (Abz-RRRRSAG-nTyr) developed previously (Li et al., “Existing Drugs as Broad-Spectrum and Potent Inhibitors for Zika Virus by Targeting NS2B-NS3 Interaction,” Cell Research 27(8):1046-1064 (2017), which is hereby incorporated by reference in its entirety) was used as the substrate for inhibition of trypsin and papain proteases. In black and clear-bottom 96-well plates, 1 μg trypsin (Sigma-Aldrich) was incubated with DMF or compounds at 400 μM at 25° C. for 30 min in a 70 μl reaction buffer containing 20 mM Tris, pH 8.0, 100 mM NaCl, 5% Glycerol, and 0.05% CHAPS. For papain, 1 μg Papain (Sigma-Aldrich) was incubated with compounds at 400 μM at 25° C. for 30 min in a 70 μl reaction buffer composed of 1.1 mM EDTA, 0.067 mM β-mercaptoethanol, 5.5 mM cysteine. […]

The target of another assay is Prp8 intein (Cryptococcus gattii, UniProt E6R027). The assay can be described thus: Split Renilla luciferase RLuc-Prp8 intein splicing assay. Conditions: compound at 20 μM. The assay is classed as biochemical.
A further assay relates to C. neoformans strain H99. The assay can be described thus: Minimum fungicidal concentration (MFC) determination. The conditions noted are these: Cryptococcus neoformans. Type of assay: cell-based. As for the experimental part: […] cells (100 ul of 0.5×10^5/ml) in log phase were added to each well. […] Then, the cultured cells in selected wells were first suspended by gentle pipetting. 50 μl of the cell culture suspension from each well was plated onto the Sabouraud dextrose agar (SDA) plates and further incubated for 48 h. MFC is defined as the minimum concentration where there is no growth after plating to the SDA plates. […] To determine minimum fungicidal concentration (MFC), the cultured cells in selected wells were first suspended by gentle pipetting. Then 50 ul of the cell culture suspension from each well was plated onto the Sabouraud dextrose agar (SDA) plates and further incubated for 48 h. MFC is defined as the minimum fungicidal concentration where there is no growth after plating on the SDA plates.

Converted amounts (≈) assume the structure as drawn. Where two headings read alike, the source gives them in different places.

Chain of Prp8 intein (E6R027 entry or part of it): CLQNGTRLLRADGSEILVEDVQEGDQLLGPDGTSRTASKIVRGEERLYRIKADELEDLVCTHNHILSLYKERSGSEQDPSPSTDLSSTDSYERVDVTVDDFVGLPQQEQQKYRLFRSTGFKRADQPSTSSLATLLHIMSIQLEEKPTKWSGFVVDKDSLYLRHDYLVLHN

Broadly, the MFC is the smallest concentration meeting the test's criterion for killing the fungus. Read a high MFC as less potent killing. Take `O=C(Nc1ccc(F)cc1)c1nnsc1S(=O)(=O)c1ccc(Cl)cc1` [6G-318S, 5-[(4-chlorophenyl)sulfonyl]-N-(4-fluorophenyl)-1,2,3-thiadiazole-4-carboxamide]: the MIC is 1 µg/mL in the assay on C. neoformans H99 (Cryptococcus neoformans, H99, 48 h); 1.56 µM in the assay on C. neoformans H99 strain (C. neoformans H99, microbroth dilution, read-out: MIC H99); 0.6 to 1 µg/mL in the assay on C. neoformans H99 strain (C. neoformans and other related species, read-out: minimum inhibitory concentration (MIC) 90); 0.62 µg/mL in the assay with C. neoformans H99 strain (H99 strain, 48 h, 30° C., read-out: MIC C. neoformans). In addition, the Effect result is “Additive (>0.5 to 1 is additive)” with C. neoformans H99 (combination 6G-318S + 5-FC), “Synergistic (FIC index value of ≤0.5 is considered as synergy)” with C. neoformans H99 (combination 6G-318S + AmB), “Additive (>0.5 to 1 is additive)” with C. neoformans H99 (combination 6G-318S + IZ) and “Indifferent (>1 to 4 is indifferent)” in the assay on C. neoformans H99 (combination 6G-318S + Vor). The MIC-comb amounted to 0.500 µg/mL with C. neoformans H99 (combination 6G-318S + 5-FC, well D6); 0.125 µg/mL with C. neoformans H99 (combination 6G-318S + AmB, well F6); 0.500 µg/mL in the assay on C. neoformans H99 (combination 6G-318S + IZ, well D6); 0.063 µg/mL with C. neoformans H99 (combination 6G-318S + Vor, well G3). In the assay on C. neoformans H99 strain (H99 strain, 48 h, 30° C.), the “MIC C. neoformans” value was 0.6 µg/mL (≈ 1.51 µM). The “inhibition of trypsin protease activity” value in the assay with trypsin is “neither 6G-318S, 6G-319S, nor cisplatin significantly inhibited”. The “suppression of RLuc-Prp8 intein splicing activity” value at Prp8 intein is listed as “greater than 50%”. In the assay on C. neoformans strain H99, this molecule came in with an MFC of 1.25 µg/mL (≈ 3.14 µM).
